# Columns and labels:
# Format in all cases: cell-based
# MDA-MB-231 = assay: Cell growth inhibition assay, breast cancer cell line MDA-MB-231; conditions: Homo sapiens; MDA-MB-231 breast cancer cell line, 5,000 cells/well
# LNCaP = assay: Cell growth inhibition assay, prostate cancer cell line LNCaP (medium with 10 ng/mL IL-6); conditions: Homo sapiens, medium supplemented with 10 ng/mL of IL-6, 10,000 cells/well
# STAT3 = biological target: T1, STAT3 (Homo sapiens, UniProt P40763); assay: STAT3 reporter gene assay (luciferase), LNCaP stable cell line (pSTAT3-TA-luc), IL-6 stimulation
# T1 construct: plasmid pSTAT3-TA-luc), which contains a stably operating STAT3 promoter; endogenous in cells
# In short: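 LNCaP cells stably carrying pSTAT3-TA-luc, in RPMI1640 with 3% DCC-FBS, were treated with compound and then stimulated with 10 ng/mL IL-6 for 24–48 h at 37 °C. Luciferase activity was measured in lysates. A parallel plate measured viability by CellTiter-Glo, with stimulated 0.1% DMSO wells as the positive control.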
# T1 sequence (P40763 whole entry): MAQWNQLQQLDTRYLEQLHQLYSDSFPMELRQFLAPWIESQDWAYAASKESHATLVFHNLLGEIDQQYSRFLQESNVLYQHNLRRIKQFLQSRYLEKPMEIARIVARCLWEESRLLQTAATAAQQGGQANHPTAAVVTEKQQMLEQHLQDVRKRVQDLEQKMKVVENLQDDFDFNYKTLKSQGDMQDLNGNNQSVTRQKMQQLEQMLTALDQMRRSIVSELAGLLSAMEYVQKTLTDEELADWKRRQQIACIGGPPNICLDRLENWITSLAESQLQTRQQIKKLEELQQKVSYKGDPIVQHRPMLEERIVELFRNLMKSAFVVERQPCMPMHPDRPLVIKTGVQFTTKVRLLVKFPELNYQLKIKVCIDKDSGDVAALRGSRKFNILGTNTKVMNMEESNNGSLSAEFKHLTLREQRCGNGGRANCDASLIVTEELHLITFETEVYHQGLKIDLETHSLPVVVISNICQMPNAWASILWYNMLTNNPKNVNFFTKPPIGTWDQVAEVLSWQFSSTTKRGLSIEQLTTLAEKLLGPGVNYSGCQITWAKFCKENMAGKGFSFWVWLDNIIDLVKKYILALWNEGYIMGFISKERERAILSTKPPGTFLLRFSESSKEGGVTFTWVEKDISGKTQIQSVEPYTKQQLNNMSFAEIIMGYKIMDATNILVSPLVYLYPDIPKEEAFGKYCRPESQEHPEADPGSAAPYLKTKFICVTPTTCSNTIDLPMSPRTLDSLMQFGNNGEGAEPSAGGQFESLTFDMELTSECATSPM
IC50 (MDA-MB-231) [µM],IC50 (LNCaP) [µM],IC50 (STAT3) [µM],SMILES
0.019,0.37,0.28,"COc1cc(NC(=O)c2cc3cc(NS(C)(=O)=O)ccc3s2)cc(-c2ccc(F)cc2F)c1 [Example 317, N-(2′,4′-difluoro-5-methoxy-[1,1′-biphenyl]-3-yl)-5-(methylsulfonamido)benzo[b]thiophene-2-carboxamide]"
> 10,> 10,8.1,"CNC(=O)c1cc(NC(=O)c2cc3ccc(NS(C)(=O)=O)cc3[nH]2)cc(-c2ccc(F)cc2F)c1 [Example 318, N-(2′,4′-difluoro-5-(methylcarbamoyl)-[1,1′-biphenyl]-3-yl)-6-(methylsulfonamido)-1H-indole-2-carboxamide]"
> 10,> 10,> 10,"CN(C)C(=O)c1cc(NC(=O)c2cc3ccc(NS(C)(=O)=O)cc3[nH]2)cc(-c2ccc(F)cc2F)c1 [Example 319, N-(5-(dimethylcarbamoyl)-2′,4′-difluoro-[1,1′-biphenyl]-3-yl)-6-(methylsulfonamido)-1H-indole-2-carboxamide]"
> 10,> 10,6.2,"CS(=O)(=O)Nc1ccc2cc(C(=O)Nc3cc(C(=O)N4CCCCC4)cc(-c4ccc(F)cc4F)c3)[nH]c2c1 [Example 320, N-(2′,4′-difluoro-5-(piperidine-1-carbonyl)-[1,1′-biphenyl]-3-yl)-6-(methylsulfonamido)-1H-indole-2-carboxamide]"
> 10,> 10,8.2,"CS(=O)(=O)Nc1ccc2cc(C(=O)Nc3cc(C(=O)N4CCOCC4)cc(-c4ccc(F)cc4F)c3)[nH]c2c1 [Example 321, N-(2′,4′-difluoro-5-(morpholine-4-carbonyl)-[1,1′-biphenyl]-3-yl)-6-(methylsulfonamido)-1H-indole-2-carboxamide]"
0.32,2.3,0.48,"CS(=O)(=O)Nc1ccc2cc(C(=O)Nc3cc(-c4ccc(F)nc4)cc(-c4ccc(F)cc4F)c3)[nH]c2c1 [Example 349, N-(2′,4′-difluoro-5-(6-fluoropyridin-3-yl)-[1,1′-biphenyl]-3-yl)-6-(methylsulfonamido)-1H-indole-2-carboxamide]"
2.3,6.5,1.5,"CC(C)(C)OC(=O)n1cccc1-c1cc(NC(=O)c2cc3ccc(NS(C)(=O)=O)cc3[nH]2)cc(-c2ccc(F)cc2F)c1 [Example 350, tert-butyl 2-(2′,4′-difluoro-5-(6-(methylsulfonamido)-1H-indole-2-carboxamido)-[1,1′-biphenyl]-3-yl)-1H-pyrrole-1-carboxylate]"
9.9,> 10,0.3,"CS(=O)(=O)Nc1ccc2cc(C(=O)Nc3cc(-c4cc[nH]n4)cc(-c4ccc(F)cc4F)c3)[nH]c2c1 [Example 351, N-(2′,4′-difluoro-5-(1H-pyrazol-3-yl)-[1,1′-biphenyl]-3-yl)-6-(methylsulfonamido)-1H-indole-2-carboxamide]"
2.4,7.6,0.82,"CS(=O)(=O)Nc1ccc2cc(C(=O)Nc3cc(-c4ccc[nH]4)cc(-c4ccc(F)cc4F)c3)[nH]c2c1 [Example 352, N-(2′,4′-difluoro-5-(1H-pyrrol-2-yl)-[1,1′-biphenyl]-3-yl)-6-(methylsulfonamido)-1H-indole-2-carboxamide]"
0.44,2.4,0.76,"Cn1cccc1-c1cc(NC(=O)c2cc3ccc(NS(C)(=O)=O)cc3[nH]2)cc(-c2ccc(F)cc2F)c1 [Example 353, N-(2′,4′-difluoro-5-(1-methyl-1H-pyrrol-2-yl)-[1,1′-biphenyl]-3-yl)-6-(methylsulfonamido)-1H-indole-2-carboxamide]"
0.71,5.7,0.33,"CS(=O)(=O)Nc1ccc2cc(C(=O)Nc3cc(-c4cccs4)cc(-c4ccc(F)cc4F)c3)[nH]c2c1 [Example 354, N-(2′,4′-difluoro-5-(thiophen-2-yl)-[1,1′-biphenyl]-3-yl)-6-(methylsulfonamido)-1H-indole-2-carboxamide]"
0.28,1.8,0.21,"CS(=O)(=O)Nc1ccc2cc(C(=O)Nc3cc(-c4ccsc4)cc(-c4ccc(F)cc4F)c3)[nH]c2c1 [Example 355, N-(2′,4′-difluoro-5-(thiophen-3-yl)-[1,1′-biphenyl]-3-yl)-6-(methylsulfonamido)-1H-indole-2-carboxamide]"

# Second part, the compound before the results:
SMILES,IC50 (MDA-MB-231) [µM],IC50 (LNCaP) [µM],IC50 (STAT3) [µM]
"Cc1c(C(=O)Nc2cccc(-c3ccc(F)cc3F)c2)sc2ccc(NS(C)(=O)=O)cc12 [Example 243, N-(2′,4′-difluoro-[1,1′-biphenyl]-3-yl)-3-methyl-5-(methylsulfonamido)benzo[b]thiophene-2-carboxamide]",1.6,6.4,7.2
"CC(=O)c1cc(NC(=O)c2cc3ccc(NS(C)(=O)=O)cc3[nH]2)cc(-c2ccc(F)cc2F)c1 [Example 245, N-(5-acetyl-2′,4′-difluoro-[1,1′-biphenyl]-3-yl)-6-(methylsulfonamido)-1H-indole-2-carboxamide]",2.6,4.9,1.4
"CS(=O)(=O)Nc1ccc2cc(C(=O)Nc3cc(-c4ccc(F)cc4F)c4cn[nH]c4c3)[nH]c2c1 [Example 246, N-(4-(2,4-difluorophenyl)-1H-indazol-6-yl)-6-(methylsulfonamido)-1H-indole-2-carboxamide]",3.5,9.2,8.4
CNS(=O)(=O)Nc1ccc2cc(C(=O)Nc3cccc(-c4ccccc4C(F)(F)F)c3)[nH]c2c1 [Example 269],2.1,4.1,2.3
"COc1cc2cc(C(=O)Nc3cc(Br)cc(-c4ccc(F)cc4F)c3)[nH]c2cc1NS(C)(=O)=O [Example 303, N-(5-bromo-2′,4′-difluoro-[1,1′-biphenyl]-3-yl)-5-methoxy-6-(methylsulfonamido)-1H-indole-2-carboxamide]",0.02,0.72,0.23
"CS(=O)(=O)c1ccc2cc(C(=O)Nc3cc(Br)cc(-c4ccc(F)cc4F)c3)[nH]c2c1 [Example 304, N-(5-bromo-2′,4′-difluoro-[1,1′-biphenyl]-3-yl)-6-(methylsulfonyl)-1H-indole-2-carboxamide]",5.3,> 10,4
"CS(=O)(=O)Nc1ccc2oc(C(=O)Nc3cc(Br)cc(-c4ccc(F)cc4F)c3)cc2c1 [Example 306, N-(5-bromo-2′,4′-difluoro-[1,1′-biphenyl]-3-yl)-5-(methylsulfonamido)benzofuran-2-carboxamide]",0.37,1.7,0.28
"CNS(=O)(=O)Nc1ccc2cc(C(=O)Nc3cc(Br)cc(-c4ccc(F)cc4F)c3)[nH]c2c1 [Example 307, N-(5-bromo-2′,4′-difluoro-[1,1′-biphenyl]-3-yl)-6-((N-methylsulfamoyl)amino)-1H-indole-2-carboxamide]",0.84,4.8,1.1
"O=C(Nc1cc(Br)cc(-c2ccc(F)cc2F)c1)c1cc2cc(OC(F)(F)F)ccc2[nH]1 [Example 308, N-(5-bromo-2′,4′-difluoro-[1,1′-biphenyl]-3-yl)-5-(trifluoromethoxy)-1H-indole-2-carboxamide]",8.1,> 10,5.6
"Cc1c(C(=O)Nc2cc(Br)cc(-c3ccc(F)cc3F)c2)sc2cc(NS(C)(=O)=O)ccc12 [Example 309, N-(5-bromo-2′,4′-difluoro-[1,1′-biphenyl]-3-yl)-3-methyl-6-(methylsulfonamido)benzo[b]thiophene-2-carboxamide]",1.2,5.9,1.5
"CS(=O)(=O)Nc1ccc2cc(C(=O)Nc3cc(Br)cc(-c4ccc(F)cc4F)c3)sc2c1 [Example 310, N-(5-bromo-2′,4′-difluoro-[1,1′-biphenyl]-3-yl)-6-(methylsulfonamido)benzo[b]thiophene-2-carboxamide]",0.39,3.2,0.8
"Cc1c(C(=O)Nc2cc(Br)cc(-c3ccc(F)cc3F)c2)sc2ccc(NS(C)(=O)=O)cc12 [Example 311, N-(5-bromo-2′,4′-difluoro-[1,1′-biphenyl]-3-yl)-3-methyl-5-(methylsulfonamido)benzo[b]thiophene-2-carboxamide]",1,6.7,5.7
"CS(=O)(=O)Nc1ccc2cc(C(=O)Nc3cc(F)cc(-c4ccc(F)cc4F)c3)[nH]c2c1 [Example 312, 6-(methylsulfonamido)-N-(2′,4′,5-trifluoro-[1,1′-biphenyl]-3-yl)-1H-indole-2-carboxamide]",0.22,1.3,0.24
"CS(=O)(=O)Nc1ccc2cc(C(=O)Nc3cc(-c4ccc(F)cc4F)cc(C(F)(F)F)c3)[nH]c2c1 [Example 313, N-(2′,4′-difluoro-5-(trifluoromethyl)-[1,1′-biphenyl]-3-yl)-6-(methylsulfonamido)-1H-indole-2-carboxamide]",0.14,3.7,3.6
"COc1cc(NC(=O)c2cc3ccc(NS(C)(=O)=O)cc3[nH]2)cc(-c2ccc(F)cc2F)c1 [Example 314, N-(2′,4′-difluoro-5-methoxy-[1,1′-biphenyl]-3-yl)-6-(methylsulfonamido)-1H-indole-2-carboxamide]",0.37,3.7,4.5
"COc1cc(NC(=O)c2sc3cc(NS(C)(=O)=O)ccc3c2C)cc(-c2ccc(F)cc2F)c1 [Example 316, N-(2′,4′-difluoro-5-methoxy-[1,1′-biphenyl]-3-yl)-3-methyl-6-(methylsulfonamido)benzo[b]thiophene-2-carboxamide]",4.6,7,3.6

# From patent US10562912B2 (C&C Research Laboratories, priority 2013, dated 2020)
